Source: ChEMBL document CHEMBL1201862, “PubChem BioAssay data set” (2004)
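Five concentrations, 48 hours, 96-well plates. Here, GI50 denotes the concentration required for 50% inhibition of growth.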 Active and inactive are the calls of the source. Cut-off read from the data, not from the text of the source: active = GI50 up to about 1.1 µM and inactive = higher.

Experiments:
Assay in all cases: inhibition of tumour cell growth, NCI panel, 48 h
[1] = system: 786-0
[2] = system: HCC 2998
[3] = system: HCT-15
[4] = system: HL-60
[5] = system: HOP-62
[6] = system: Hs-578T
[7] = system: IGROV-1
[8] = system: LOX IMVI
[9] = system: M14
[10] = system: MDA-MB-435
[11] = system: MOLT-4
[12] = system: NCI-H522
[13] = system: SF-539
[14] = system: SK-MEL-28
[15] = system: SK-MEL-2
[16] = system: SK-MEL-5
[17] = system: SN12C
[18] = system: SNB-75
[19] = system: UACC-62
[20] = system: RXF 393

Measured: GI50

O=C(O)/C=N/NC(=S)NC1CCCCC1
inactive: [1] > 100 µM | [2] > 100 µM | [4] > 100 µM | [5] > 100 µM | [6] > 100 µM | [7] > 100 µM | [8] > 100 µM | [9] > 100 µM | [10] > 100 µM | [11] > 100 µM | [12] > 100 µM | [13] > 100 µM | [14] > 100 µM | [15] > 100 µM | [16] > 100 µM | [17] > 100 µM | [18] > 100 µM | [19] > 100 µM
> 100 µM: [3]

Cc1cnc2c(c1)C(=O)N(c1ccc(Oc3ccccc3)cc1)S2(=O)=O
> 100 µM: [3]
inactive: [1] > 100 µM | [2] > 100 µM | [4] > 100 µM | [5] > 100 µM | [6] > 100 µM | [7] 57.8 µM | [8] > 100 µM | [9] > 100 µM | [10] > 100 µM | [11] > 100 µM | [12] 57.7 µM | [13] > 100 µM | [14] > 100 µM | [15] > 100 µM | [16] > 100 µM | [17] > 100 µM | [18] > 100 µM | [19] > 100 µM

CC(C)CCCC(=O)CCCCCCC(=O)CCN(O)C(=O)C(N)CO (stereo unspecified)
inactive: [1] 16 µM | [4] 20 µM | [5] 21.2 µM | [6] 28.5 µM | [7] 13.5 µM | [8] 12.2 µM | [9] 20.2 µM | [10] 25.8 µM | [11] 41.7 µM | [20] 11 µM | [13] 16 µM | [14] 19.1 µM | [15] 17.1 µM | [16] 17.5 µM | [17] 16.9 µM | [18] 10.8 µM | [19] 16.7 µM
15.3 µM: [3]

COC1CC(OC2C(C)OC(OC3C(C)OC(OC4C(C)OC(O[C@H]5CC[C@@]6(C)C(=CC[C@]7(O)[C@@H]6C[C@@H](OC(=O)/C=C/c6ccccc6)[C@@]6(C)[C@]7(O)CC[C@@]6(O)C(C)=O)C5)CC4OC)CC3OC)CC2OC)OC(C)C1O (stereo partly specified)
> 12.5 µM: [3]
inactive: [1] > 12.5 µM | [2] > 12.5 µM | [4] 6.75 µM | [5] > 12.5 µM | [6] > 12.5 µM | [7] > 12.5 µM | [8] > 12.5 µM | [9] > 12.5 µM | [10] > 12.5 µM | [11] > 12.5 µM | [12] > 12.5 µM | [13] > 12.5 µM | [14] > 12.5 µM | [15] > 12.5 µM | [16] 11.4 µM | [17] > 12.5 µM | [18] > 12.5 µM | [19] > 12.5 µM

CC(=O)O[C@H]1CCn2c3c(c(C)c21)C(=O)C(N1CC1)=C(C)C3=O
inactive: [1] > 10 µM | [2] > 10 µM | [4] > 10 µM | [5] 5.2 µM | [6] > 10 µM | [7] > 10 µM | [8] > 10 µM | [9] > 10 µM | [10] > 10 µM | [11] > 10 µM | [12] > 10 µM | [13] > 10 µM | [15] > 10 µM | [16] 2.57 µM | [17] 7.43 µM | [18] 8.51 µM | [19] 9.04 µM
> 10 µM: [3]

C/C(=N\N=C(/S)N1CC2CCC(CC2)C1)c1ccncn1
< 0.01 µM: [3]
active: [1] 0.0103 µM | [4] < 0.01 µM | [5] 0.108 µM | [6] 0.914 µM | [7] < 0.01 µM | [8] < 0.01 µM | [9] < 0.01 µM | [10] 0.0703 µM | [11] < 0.01 µM | [20] 0.794 µM | [13] < 0.01 µM | [14] 0.863 µM | [16] < 0.01 µM | [17] 0.0152 µM | [18] 0.221 µM | [19] < 0.01 µM
inactive: [15] 1.19 µM
